Assay [1] has as its target T1, Aβ42 (β-amyloid peptide) (Homo sapiens, UniProt P05067).
T1 construct: gene APP; Aβ42
As to the kind of experiment: inhibition of Aβ[…] self-aggregation, MS monomer quantification at […] (also ThT assay). The format is biochemical. The note with it: read-out: inhibition of Aβ42 self-aggregation / % inhibition by MS ± SD [I] = 50 μM ^b.

The target in assay [2] is T1, Aβ42 (β-amyloid peptide). As to the kind of experiment: MS and LC-MS/MS detection of covalent adduct with Aβ[…]; ThT aggregation assay (IC50). The assay is classed as biochemical.

T1 sequence (P05067 672-713): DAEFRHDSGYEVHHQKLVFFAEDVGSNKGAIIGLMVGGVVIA

Take `CCCSC(=O)/C=C/c1ccc(O)c(O)c1` [compound 1]: the inhibition at 50 µM on Aβ42 (β-amyloid peptide) [1] worked out at 56.9%. One may read the IC50 as the concentration that inhibits the measured activity by half. For `CCCSC(=O)/C=C/c1cc(O)ccc1O` [compound 3, para-hydroquinone 3], the IC50 at Aβ42 (β-amyloid peptide) [2] was found to be 10.2 µM.

For the origin of these results see publication PMC9661696, “Inhibition of β-Amyloid Aggregation in Alzheimer’s Disease: The Key Role of (Pro)electrophilic Warheads” (ACS Medicinal Chemistry Letters, 2022).
